# According to ChEMBL document CHEMBL5236672, “Discovery of indole-piperazine derivatives as selective histone deacetylase 6 inhibitors with neurite outgrowth-promoting activities and neuroprotective activities” (Bioorg Med Chem Lett, 2023):
# Tests used:
# Homo sapiens = species on record: Homo sapiens; experiment: Selectivity index, ratio of IC50 for inhibition of HDAC1 (unknown origin) to IC50 for inhibition of HDAC6 (unknown origin)
# [1] = biological target: T1, Protein deacetylase HDAC6 (Homo sapiens, UniProt Q9UBN7); experiment: Inhibition of HDAC6 (unknown origin) using fluorogenic peptide RHKKAc-AMC as substrate by fluorescence-based assay
# T1 sequence (Q9UBN7 whole entry): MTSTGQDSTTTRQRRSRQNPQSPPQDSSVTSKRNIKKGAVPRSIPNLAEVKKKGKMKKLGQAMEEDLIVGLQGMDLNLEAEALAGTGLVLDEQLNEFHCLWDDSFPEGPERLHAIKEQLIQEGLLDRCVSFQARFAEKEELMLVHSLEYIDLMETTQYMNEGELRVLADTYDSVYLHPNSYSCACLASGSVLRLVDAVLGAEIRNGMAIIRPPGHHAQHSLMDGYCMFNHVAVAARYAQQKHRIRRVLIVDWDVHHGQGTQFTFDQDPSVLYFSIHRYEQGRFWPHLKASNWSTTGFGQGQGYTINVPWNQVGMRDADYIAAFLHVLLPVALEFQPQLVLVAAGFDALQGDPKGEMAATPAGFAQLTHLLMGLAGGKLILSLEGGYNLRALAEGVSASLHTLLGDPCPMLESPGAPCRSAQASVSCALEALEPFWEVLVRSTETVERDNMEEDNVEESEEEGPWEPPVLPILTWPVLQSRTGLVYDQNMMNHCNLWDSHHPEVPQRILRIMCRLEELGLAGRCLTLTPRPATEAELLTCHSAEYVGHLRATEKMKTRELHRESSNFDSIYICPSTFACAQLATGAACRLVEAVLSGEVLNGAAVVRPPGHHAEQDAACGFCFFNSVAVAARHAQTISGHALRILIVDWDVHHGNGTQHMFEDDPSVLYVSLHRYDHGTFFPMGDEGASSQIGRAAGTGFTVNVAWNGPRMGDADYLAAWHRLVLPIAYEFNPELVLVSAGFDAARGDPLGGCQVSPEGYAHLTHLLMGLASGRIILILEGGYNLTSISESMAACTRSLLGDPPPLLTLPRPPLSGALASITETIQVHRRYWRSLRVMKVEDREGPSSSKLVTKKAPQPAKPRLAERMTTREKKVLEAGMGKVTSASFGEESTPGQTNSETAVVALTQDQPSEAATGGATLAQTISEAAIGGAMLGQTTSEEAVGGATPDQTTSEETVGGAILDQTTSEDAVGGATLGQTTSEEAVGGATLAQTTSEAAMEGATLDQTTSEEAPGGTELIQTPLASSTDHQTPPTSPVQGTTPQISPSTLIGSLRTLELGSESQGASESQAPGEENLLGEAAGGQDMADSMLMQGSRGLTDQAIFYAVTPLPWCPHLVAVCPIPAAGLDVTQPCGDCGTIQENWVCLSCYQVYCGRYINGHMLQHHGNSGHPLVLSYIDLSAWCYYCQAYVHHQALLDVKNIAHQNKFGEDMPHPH
# Histone deacetylase 1 = Histone deacetylase 1 (Homo sapiens, UniProt Q13547); experiment: Inhibition of HDAC1 (unknown origin) using fluorogenic peptide RHKKAc-AMC as substrate by fluorescence-based assay
# Chain of Histone deacetylase 1 (Q13547 whole entry): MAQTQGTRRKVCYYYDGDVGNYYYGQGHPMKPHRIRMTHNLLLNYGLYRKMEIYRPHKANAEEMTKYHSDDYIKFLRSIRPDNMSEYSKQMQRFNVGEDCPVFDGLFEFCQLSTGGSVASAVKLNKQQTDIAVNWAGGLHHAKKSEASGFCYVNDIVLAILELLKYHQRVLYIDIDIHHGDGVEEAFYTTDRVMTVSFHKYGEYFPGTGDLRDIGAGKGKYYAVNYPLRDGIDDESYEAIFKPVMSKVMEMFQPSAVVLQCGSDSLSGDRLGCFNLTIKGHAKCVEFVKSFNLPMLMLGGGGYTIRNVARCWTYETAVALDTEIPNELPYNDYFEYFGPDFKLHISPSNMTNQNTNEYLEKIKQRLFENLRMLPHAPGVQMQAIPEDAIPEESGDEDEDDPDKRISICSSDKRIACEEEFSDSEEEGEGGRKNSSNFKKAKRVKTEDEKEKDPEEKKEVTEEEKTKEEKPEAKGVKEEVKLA
# PC-12 [2] = experiment: Neuroprotective activity in rat PC-12 cells assessed as increase in NGF-mediated neurite outgrowth at 3 uM incubated for 48 hrs by phase contrast microscopic analysis; type: functional
# PC-12 [3] = experiment: Neuroprotective activity in rat PC-12 cells assessed as increase in NGF-mediated neurite outgrowth at 1 to 10 uM incubated for 48 hrs by phase contrast microscopic analysis; type: functional, cell-based; conditions: dose 1-10 µM
# PC-12 [4] = experiment: Cytotoxicity against rat PC-12 cells assessed as reduction in cell viability at 10 uM; type: toxicity, cell-based; conditions: pc-12, 10 µM
# PC-12 [5] = experiment: Neuroprotective activity against H202-induced oxidative damage in rat PC-12 cells assessed as increase in cell viability at 1 to 10 uM; type: functional, cell-based; conditions: dose 1-10 µM
# Histone deacetylase 2 = Histone deacetylase 2 (Homo sapiens, UniProt Q92769); experiment: Inhibition of HDAC2 (unknown origin) using fluorogenic peptide RHKKAc-AMC as substrate by fluorescence-based assay
# Chain of Histone deacetylase 2 (Q92769 whole entry): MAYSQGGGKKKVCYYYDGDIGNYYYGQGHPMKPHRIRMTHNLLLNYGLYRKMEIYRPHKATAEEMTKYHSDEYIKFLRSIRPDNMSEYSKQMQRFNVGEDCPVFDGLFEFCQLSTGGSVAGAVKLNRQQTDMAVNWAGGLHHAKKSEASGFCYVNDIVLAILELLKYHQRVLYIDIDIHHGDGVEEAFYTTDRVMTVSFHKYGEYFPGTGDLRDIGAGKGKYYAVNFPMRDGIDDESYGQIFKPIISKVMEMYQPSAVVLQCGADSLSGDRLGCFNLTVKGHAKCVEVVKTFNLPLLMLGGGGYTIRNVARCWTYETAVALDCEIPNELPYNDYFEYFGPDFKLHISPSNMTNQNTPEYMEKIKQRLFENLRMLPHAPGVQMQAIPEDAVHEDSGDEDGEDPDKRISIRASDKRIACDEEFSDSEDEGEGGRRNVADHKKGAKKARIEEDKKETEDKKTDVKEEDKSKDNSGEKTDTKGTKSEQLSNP
# PC-12 [6] = experiment: Neuroprotective activity in rat PC-12 cells assessed as increase in NGF-mediated neurite outgrowth at 10 uM incubated for 48 hrs by phase contrast microscopic analysis; type: functional
# Histone deacetylase 3 = Histone deacetylase 3 (Homo sapiens, UniProt O15379); experiment: Inhibition of HDAC3 (unknown origin) using fluorogenic peptide RHKKAc-AMC as substrate by fluorescence-based assay
# Chain of Histone deacetylase 3 (O15379 whole entry): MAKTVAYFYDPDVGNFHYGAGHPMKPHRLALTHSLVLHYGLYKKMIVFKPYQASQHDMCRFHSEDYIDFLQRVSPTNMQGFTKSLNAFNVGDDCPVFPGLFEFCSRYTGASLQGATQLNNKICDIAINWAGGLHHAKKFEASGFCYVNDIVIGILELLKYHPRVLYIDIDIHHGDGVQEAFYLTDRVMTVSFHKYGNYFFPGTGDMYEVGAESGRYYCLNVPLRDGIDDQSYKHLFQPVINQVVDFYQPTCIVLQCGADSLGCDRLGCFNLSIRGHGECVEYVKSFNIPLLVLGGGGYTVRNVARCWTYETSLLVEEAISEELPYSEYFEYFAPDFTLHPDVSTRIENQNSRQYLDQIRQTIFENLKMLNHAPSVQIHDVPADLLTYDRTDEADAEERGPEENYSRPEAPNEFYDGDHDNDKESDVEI
# Histone deacetylase 5 = Histone deacetylase 5 (Homo sapiens, UniProt Q9UQL6); experiment: Inhibition of HDAC5 (unknown origin) using trifluoroacetyl lysine as substrate by fluorescence-based assay
# Chain of Histone deacetylase 5 (Q9UQL6 whole entry): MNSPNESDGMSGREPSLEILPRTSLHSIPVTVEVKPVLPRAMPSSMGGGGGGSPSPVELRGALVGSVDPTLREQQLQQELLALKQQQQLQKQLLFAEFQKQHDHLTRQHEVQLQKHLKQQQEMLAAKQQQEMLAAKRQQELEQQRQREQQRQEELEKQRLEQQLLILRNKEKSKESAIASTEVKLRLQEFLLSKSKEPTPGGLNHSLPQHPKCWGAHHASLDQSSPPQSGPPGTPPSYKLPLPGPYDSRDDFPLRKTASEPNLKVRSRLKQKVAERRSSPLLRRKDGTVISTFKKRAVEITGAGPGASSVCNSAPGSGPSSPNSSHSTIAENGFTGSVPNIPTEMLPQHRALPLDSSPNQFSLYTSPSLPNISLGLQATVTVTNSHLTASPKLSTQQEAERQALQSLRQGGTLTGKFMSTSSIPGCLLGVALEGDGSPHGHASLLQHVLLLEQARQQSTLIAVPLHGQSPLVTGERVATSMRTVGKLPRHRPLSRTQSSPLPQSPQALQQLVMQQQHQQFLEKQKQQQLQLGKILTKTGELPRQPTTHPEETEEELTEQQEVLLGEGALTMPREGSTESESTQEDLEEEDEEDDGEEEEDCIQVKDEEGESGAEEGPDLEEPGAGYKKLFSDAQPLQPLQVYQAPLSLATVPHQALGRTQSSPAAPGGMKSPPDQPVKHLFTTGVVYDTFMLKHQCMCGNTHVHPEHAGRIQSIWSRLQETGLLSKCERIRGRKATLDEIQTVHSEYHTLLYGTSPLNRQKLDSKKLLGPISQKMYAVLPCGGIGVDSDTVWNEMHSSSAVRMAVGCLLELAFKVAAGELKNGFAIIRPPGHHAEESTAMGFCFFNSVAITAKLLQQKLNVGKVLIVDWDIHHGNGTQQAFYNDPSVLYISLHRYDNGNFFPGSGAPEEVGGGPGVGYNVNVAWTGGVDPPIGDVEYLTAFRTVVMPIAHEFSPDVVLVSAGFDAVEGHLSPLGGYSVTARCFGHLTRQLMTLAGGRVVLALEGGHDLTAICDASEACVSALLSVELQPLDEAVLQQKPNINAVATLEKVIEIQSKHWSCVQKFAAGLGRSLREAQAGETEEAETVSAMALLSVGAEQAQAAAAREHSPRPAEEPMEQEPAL
# PC-12 [7] = experiment: Neuroprotective activity against H202-induced oxidative damage in rat PC-12 cells assessed as increase in cell viability at 10 uM; type: functional
Structure (SMILES),Ratio IC50 (Homo sapiens),IC50 [1] [nM],IC50 (Histone deacetylase 1) [nM],Activity (PC-12 [2]) [%],also measured
O=C(NO)c1ccc(CN2CCN(C(=O)c3c[nH]c4cccc(Cc5ccccc5)c34)CC2)cc1,–,78.5,> 50000,31.8,Activity (PC-12 [3]): Dose-Dependent Effect
O=C(NO)c1ccc(CN2CC(=O)N(Cc3ccccc3)C(Cc3ccccc3)C2=O)cc1 (centres undefined),–,–,–,12.3,–
CN1CCc2c(c3ccccc3n2Cc2ccc(C(=O)NO)cc2)C1,–,–,–,–,Activity (PC-12 [5]): Dose-Dependent Effect
Cn1cc(C(=O)N2CCN(Cc3ccc(C(=O)NO)cc3)CC2)c2ccccc21,39,55.2,2180,27.5,–
O=C1CN(Cc2ccc(C(=O)NO)cc2)C(=O)[C@@H](Cc2c[nH]c3ccccc23)N1,–,–,–,12.3,–
C=CCN1C(=O)CN(Cc2ccc(C(=O)NO)cc2)C(=O)C1Cc1ccccc1 (centres undefined),–,–,–,12.3,–
CN1C(=O)CN(Cc2ccc(C(=O)NO)cc2)C(=O)C1Cc1ccccc1 (centres undefined),–,–,–,12.3,–

# Now from value to compound, other results behind:
Ratio IC50 (Homo sapiens),IC50 [1] [nM],IC50 (Histone deacetylase 1) [nM],Structure (SMILES),Activity (PC-12 [2]) [%],also measured
55,26,1430,O=C(NO)c1ccc(CN2CCN(C(=O)c3c[nH]c4ccc(Cl)cc34)CC2)cc1,12.3,–
45,23.4,1050,O=C(NO)c1ccc(CN2CCN(C(=O)c3c[nH]c4cc(OCc5ccccc5)ccc34)CC2)cc1,37.3,Activity (PC-12 [4]): Toxic; Activity (PC-12 [3]): Dose-Dependent Effect
–,88.5,–,O=C(NO)c1ccc(CN2CCN(C(=O)c3cc4ccccc4[nH]3)CC2)cc1,–,–
87,14.4,1260,O=C(NO)c1ccc(CN2CCN(C(=O)c3c[nH]c4ccccc34)CC2)cc1,12.3,–
102,13.6,1390,Cc1cccc2c(C(=O)N3CCN(Cc4ccc(C(=O)NO)cc4)CC3)c[nH]c12,34.7,IC50 (Histone deacetylase 2): 2250 nM; Activity (PC-12 [6]): 12.3%; IC50 (Histone deacetylase 3): 1850 nM; IC50 (Histone deacetylase 5): > 50000 nM; Activity (PC-12 [4]): 39.1%; Activity (PC-12 [3]): Dose-Dependent Effect; Activity (PC-12 [5]): Dose-Dependent Effect; Activity (PC-12 [7]): 78.5%
85,14,1190,O=C(NO)c1ccc(CN2CCN(C(=O)c3c[nH]c4cc(F)ccc34)CC2)cc1,12.3,–
